Patent US11440906B2, “Biguanide derivatives and their rearrangement products for use in the treatment of cancer” (CENTRE NATIONAL DE LA RECHERCHE SCIENTIFIQUE, priority 2017, dated 2022)
pIC50: −log10 of the molar value. Read-outs that look alike come from different tables or passages of the source.

Assays:
[1] = test system: A375 Sensitive cells; assay: Viability test, trypan blue exclusion, A375 Sensitive cells; type: cell-based, human; conditions: for viability at 5 µM / viability at 10 µM: viable cells as percentage of DMSO control
Summary of the method: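 A375 (B-Raf, CDKN2A, PTEN mutant) cells were exposed to compounds at 5.0 or 10 μM for 24 or 48 hr; CRO15 also at 0.5–50 μM for 48 hr or 5 μM for 2–48 hr; DMSO control. Viable cells were counted by trypan blue exclusion, as % of control. Three experiments in triplicate.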

[2] = test system: Different melanoma cell lines with various mutations; assay: Viability test with CRO15, melanoma cell lines with various mutations; type: cell-based, human; conditions: 5 μM, 48 hours; FIG. 1C
Text: (§1) Different melanoma cell lines were purchased from the American Tissue Culture Collection: A375 and WM9 cells are mutated on B-Raf, CDKN2A and PTEN proteins; SKmel28 cells are mutated on B-Raf and P53 proteins; 1205Lu cells are mutated on B-Raf and PTEN proteins; G-361 cells are mutated on B-Raf and CDKN2A proteins; C8161 cells are mutated on B-Raf and K-Ras proteins; WM3912 cells are mutated on B-Raf and CDKN2A proteins; MeWo cells are mutated on P53 and CDKN2A proteins; WM3918 presents no mutations on characteristic proteins.
(§2) For trypan blue staining, […] of cells (melanoma and normal human cells) were aseptically transferred to a 1.5 mL clear Eppendorf tube and incubated for 3 min at room temperature with an equal volume of 0.4% trypan blue solution. Viable cells were counted and the results are expressed as the percentage of the value of control cells. All the experiments are performed 3 times in triplicate.
Different melanoma cell lines with various mutations, patient cells with various mutations and normal human cells, were treated with 5 μM of CRO15 for 48 hours or DMSO (Control). At the end of stimulation, viable cells were counted using the trypan blue dye exclusion method. The results are normalized as percentages compare to the control and data means±SEM of three independent experiments performed in triplicate *p<0.05; **p<0.01; ***p<0.001. […]

[3] = test system: A375 resistant melanoma cells; assay: Viability test of CRO15 on resistant melanoma cells; type: cell-based, human; conditions: 48 hr, FIG. 4A
Procedure: Resistant melanoma cell lines A375 and SKMel28 were a gift from Professor P. Marchetti and described in Corazao-Rozas et al. (2013). Cells were grown in RPMI 1640 or in DMEM supplemented with 10% of Foetal Calf Serum (FCS) and penicillin/streptomycin (100 U/ml/[…]) at 37° C. and 5% CO2.
as §2
A375 sensitive and resistant melanoma cells were treated with 5 μM of CRO15 for 48 hr or with 5 μM of PLX4032 for 48 hr or with DMSO (Control). At 48 hours, viable cells were counted using the trypan blue dye exclusion method. The results are normalized as percentages compare to the control and data means±SEM of three independent experiments performed in triplicate *p<0.05; **p<0.01; ***p<0.001.

[4] = test system: Melanoma cell line DR6; assay: Viability test on double resistant cells to BRAF and MEK inhibitors; type: cell-based; conditions: 5 μM or 10 μM, 24 hours; FIG. 5
Procedure: as §2
Melanoma cell line DR6 resistant cells to B-Raf inhibitor (Vemurafenib=PLX4032) and to MEK inhibitor (Cobimetinib) were treated with DMSO (control), with 5 μM or 10 μM of CRO15 or with a combination of 1 μM of vemurafenib and 0.5 μM of cobimetinib. After 24 hours of stimulation, viable cells were counted using the trypan blue dye exclusion method. The results are normalized as percentages compare to the control. Error bars represents ±SEM of triplicate.

[5] = test system: AMPK; assay: Western blot assays, A375 Sensitive cells; type: cell-based, human; conditions: 5 μM, 6 hr, 12 hr or 24 hr; FIG. 2
Procedure: Western blot analyses were performed as described (Lehraiki et al., 2014). Proteins were extracted in buffer containing 50 mmol/l Tris-HCl (pH 7.5), 15 mmol/1, NaCl, 1% Triton X-100, and 1× protease and phosphatase inhibitors. Briefly, cell lysates […] were separated by SDS-PAGE, transferred onto a polyvinylidene fluoride membrane (Millipore), and then exposed to the appropriate antibodies. Proteins were visualized with the ECL System from Amersham. The western blot analyses shown are representative of at least three independent experiments.
Western Blot analysis: A375 Sensitive cells were treated with 5 μM of CRO15 for different time (6 hr, 12 hr or 24 hr) or with DMSO (Control) for 24 hr.

[6] = test system: WM9 cells; assay: Resistance development in WM9 cells after 8 weeks of drug exposure; type: cell-based, human; conditions: 8 weeks increasing concentrations, then 10 μM 48 hrs; FIG. 7B
Text: as §1, §2
To study weither melanoma cells WM9 would develop resistance to CRO15, these cells were kept in culture during 8 weeks in presence of increasing concentrations of either, DMSO (control), PLX4032, CRO15 or MTF255. The starting concentration was 0.2 μM.
Along with non-treated WM9S (naive cells), drug-treated WM9S were then stimulated with 10 μM of each drug during 48 hrs. Viable cells were counted using the trypan blue dye exclusion method. […]

pIC50 ([1]; Homo sapiens, A-375, A375 Sensitive cells, 48 hr, read-out: IC50 of CRO15): 5.43
Structure (SMILES): Nc1nc(Nc2ccccc2SSc2ccccc2Nc2nc(N)nc(C(Cl)(Cl)Cl)n2)nc(C(Cl)(Cl)Cl)n1 [CRO15, N2,N2′-(disulfanediylbis(2,1-phenylene))bis(6-(trichloromethyl)-1,3,5-triazine-2,4-diamine)]
decrease of the viability compared with PLX4032 ([1]; 5 μM each, 48 hr, FIG. 1A): more important with CRO15 than with PLX4032 | cell viability of A375 S cells, kinetic ([1]; 5 μM, 2 hr to 48 hr, FIG. 1A): induces a decrease of the viability of melanoma cells | cell viability, A375 sensitive melanoma cells ([1]; 5 μM, 48 hr, FIG. 4A): induces a decrease of the cell viability | dose-response on melanoma cells viability ([1]; 0.5-50 μM, 48 hr, FIG. 1B): dose-response relationship | viability at 5 µM ([1]; Homo sapiens, A-375, 5 μM, 24 h, read-out: Viab A375 5 μM/ 24 h): 36% | viability at 5 µM ([1]; Homo sapiens, A-375, 5 μM, 48 h, read-out: Viab A375 5 μM/ 48 h): 27% | viability at 10 µM ([1]; Homo sapiens, A-375, 24 h, read-out: Viab A375 10 μM/ 24 h): 23% | viability at 10 µM ([1]; Homo sapiens, A-375, 48 h, read-out: Viab A375 10 μM/ 48 h): 2.6% | viability of different melanoma cell lines with various mutations [2]: induces a decrease of the viability | decrease of the viability compared with PLX4032 ([3]; 5 μM each, A375 sensitive and resistant): more important with CRO15 than with PLX4032 | cell viability, A375 resistant melanoma cells ([3]; 5 μM): induces a decrease of the cell viability | cell viability of DR6 cells [4]: induces a decrease of the cell viability | activation of AMPK (western blot) [5]: induces an activation of AMPK | cell viability of WM9 after 8 weeks of treatment and stimulation with the drug [6]: still able to induce cell death
